Consider ten molecules from patent US10738043B2, “GLS1 inhibitors for treating disease” (Board of Regents, The University of Texas System, priority 2015, dated 2020).

In general, pIC50 refers to −log10 of the IC50, conventionally taken in molar units.

In experiment [1] the target is T1, GLS1 (purified recombinant human GAC) (Homo sapiens, UniProt O94925).
T1 sequence (O94925 55-598 isoform O94925-3 limits assumed): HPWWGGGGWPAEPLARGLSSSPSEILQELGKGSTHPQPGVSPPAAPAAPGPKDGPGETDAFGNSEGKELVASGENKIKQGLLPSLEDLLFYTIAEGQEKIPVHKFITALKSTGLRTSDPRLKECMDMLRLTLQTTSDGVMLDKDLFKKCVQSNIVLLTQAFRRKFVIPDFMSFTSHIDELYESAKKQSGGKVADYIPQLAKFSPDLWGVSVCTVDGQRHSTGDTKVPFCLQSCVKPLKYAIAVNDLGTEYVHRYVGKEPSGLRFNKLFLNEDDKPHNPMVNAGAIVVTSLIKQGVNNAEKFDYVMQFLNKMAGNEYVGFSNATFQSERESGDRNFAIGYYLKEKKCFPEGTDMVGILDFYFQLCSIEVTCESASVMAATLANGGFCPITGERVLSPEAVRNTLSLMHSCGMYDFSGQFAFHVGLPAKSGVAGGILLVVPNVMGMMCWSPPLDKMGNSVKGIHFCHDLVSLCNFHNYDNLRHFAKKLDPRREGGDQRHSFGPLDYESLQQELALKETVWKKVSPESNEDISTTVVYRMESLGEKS
Put plainly: GLS1 Enzymatic Activity Assay (dual-coupled enzymatic assay). In kind it is biochemical. Particulars: 50 mM potassium phosphate, 1 mM glutamine, read-out: IC50 against GLS1. The protocol: GLS1 Enzymatic Activity Assay
The inhibition of purified recombinant human GAC by varying concentrations of inhibitors is assessed via a dual-coupled enzymatic assay. The glutamate produced by the glutaminase reaction is used by glutamate oxidase to produce α-ketoglutarate, ammonia, and hydrogen peroxide, with this hydrogen peroxide subsequently being used by horseradish peroxidase to produce resorufin in the presence of Amplex UltraRed. The assay buffer consisted of 50 mM HEPES (pH 7.4), 0.25 mM EDTA and 0.1 mM Triton X-100. GAC was incubated with potassium phosphate (10 minutes at room temperature) prior to incubation with inhibitor (10 minutes at room temperature). The final reaction conditions were as follows: 2 nM GAC, 50 mM potassium phosphate, 100 mU/ml glutamate oxidase (Sigma), 1 mM glutamine (Sigma), 100 mU/ml horseradish peroxidase (Sigma), 75 μM Amplex UltraRed (Life Technologies), and 1% (v/v) DMSO. The production of resorufin was monitored on a Perkin Elmer Envision plate reader (excitation 530 nm, emission 590 nm) either in a kinetics or endpoint mode (at 20 minutes). IC50 values were calculated using a four-parameter logistic curve fit.

The subject of experiment [2] is A549 cells. The experiment can be described thus: Proliferation Assay (A549 viability, Cell Titer Fluor, 72 hours). The class given is cell-based. Particulars: read-out: EC50 against A549 cell proliferation. On the procedure: A549 cells were routinely maintained in RPMI 1640 media (Gibco catalog number 11875-093) supplemented with 10% dialyzed fetal bovine serum using a humidified incubator (37° C., 5% CO2 and ambient O2). In preparation for the viability assay, cells were inoculated into 384-well black CulturPlates (Perkin Elmer) at a density of 1000 cells/well in a volume of 40 μl. Following a 24-hour incubation at 37° C., 5% CO2 and ambient 02, cells were treated with compound (10 μl) in a final DMSO concentration of 0.5% (v/v). The microplates were then incubated for 72 hours (37° C., 5% CO2 and ambient O2). Cell Titer Fluor (Promega) was subsequently added (10 μl of 6× reagent) and mixed for 15 minutes at room temperature. The plates were then incubated for 30 minutes (37° C., 5% CO2 and ambient O2) and fluorescence was subsequently read on the Perkin Elmer Envision plate reader. EC50 values were calculated using a four-parameter logistic curve fit.

pEC50, pIC50: −log10 of the molar value. Like-named read-outs stand apart in the source and are kept apart here.

Turning to `O=C(Cc1cccc(OC(F)(F)F)c1)Nc1ccc(N2CCC(c3nnc(NC(=O)Cc4noc5ccccc45)s3)C2)nn1` (centres unmarked) [Example 36, 2-(benzo[d]isoxazol-3-yl)-N-(5-(1-(6-(2-(3-(trifluoromethoxy)phenyl)acetamido)pyridazin-3-yl)pyrrolidin-3-yl)-1,3,4-thiadiazol-2-yl)acetamide], the pIC50 in experiment [1] is above 7.00. Besides, the pEC50 in experiment [2] (Homo sapiens) is 6.30 to 7.00.

As for `O=C(Cc1cccc(OC(F)(F)F)c1)Nc1ccc(N2CCC(c3nnc(NC(=O)Cc4ccccc4F)s3)C2)nn1` (centres unmarked) [Example 20, 2-(2-fluorophenyl)-N-(5-(1-(6-(2-(3-(trifluoromethoxy)phenyl)acetamido)pyridazin-3-yl)pyrrolidin-3-yl)-1,3,4-thiadiazol-2-yl)acetamide 2,2,2-trifluoroacetate], the pIC50 in experiment [1] is above 7.00. In addition, the pEC50 in experiment [2] (Homo sapiens) is 6.30 to 7.00.

Take `O=C(Cc1cccc(OC(F)(F)F)c1)Nc1ccc(C2CCN(c3nnc(NC(=O)Cc4ccccn4)s3)C2)nn1` (centres unmarked) [Example 21, 2-(pyridin-2-yl)-N-(5-(3-(6-(2-(3-(trifluoromethoxy)phenyl)acetamido)pyridazin-3-yl)pyrrolidin-1-yl)-1,3,4-thiadiazol-2-yl)acetamide]: the negative-log IC50 (pIC50) in experiment [1] is above 7.00. For the same molecule, the pEC50 in experiment [2] (Homo sapiens) is 6.30 to 7.00.

In the case of `NC(=O)c1nnc(N2CCC(c3ccc(NC(=O)Cc4ccccn4)nn3)C2)s1` (centres unmarked) [Example 39, 5-(3-(6-(2-(pyridin-2-yl)acetamido)pyridazin-3-yl)pyrrolidin-1-yl)-1,3,4-thiadiazole-2-carboxamide], the pIC50 in experiment [1] is 6.30 to 7.00. Further, the pEC50 in experiment [2] (Homo sapiens) is 5.30 to 6.30.

As for `Cn1ccc(CNC(=O)c2nnc(N3CCC(c4ccc(NC(=O)Cc5ccccn5)nn4)C3)s2)n1` (centres unmarked) [Example 37, N-((1-methyl-1H-pyrazol-3-yl)methyl)-5-(3-(6-(2-(pyridin-2-yl)acetamido)pyridazin-3-yl)pyrrolidin-1-yl)-1,3,4-thiadiazole-2-carboxamide], the negative logarithm of the IC50 (pIC50) in experiment [1] was above 7.00. In addition, in experiment [2] (Homo sapiens), the pEC50 is 6.30 to 7.00.

With “2-(2-phenylthiazol-4-yl)-N-(5-(1-(6-(2-(3-(trifluoromethoxy)phenyl)acetamido)pyridazin-3-yl)pyrrolidin-3-yl)-1,3,4-thiadiazol-2-yl)acetamide [Example 30]”, in experiment [1], the pIC50 is above 7.00. The pEC50 in experiment [2] is above 7.00.

On to `Cc1cccc(CC(=O)Nc2ccc(C3CCN(c4nnc(C(=O)NCc5cc(C(F)(F)F)ccn5)s4)C3)nn2)n1` (centres unmarked) [Example 49, 5-(3-(6-(2-(6-methylpyridin-2-yl)acetamido)pyridazin-3-yl)pyrrolidin-1-yl)-N-((4-(trifluoromethyl)pyridin-2-yl)methyl)-1,3,4-thiadiazole-2-carboxamide], for which the pIC50 in experiment [1] was above 7.00. Besides, the pEC50 in experiment [2] (Homo sapiens) is above 7.00.

Regarding `CC(=O)Nc1nnc(N2CCC(c3ccc(NC(=O)Cc4cccc(OC(F)(F)F)c4)nn3)C2)s1` (centres unmarked) [Example 27, N-(6-(1-(5-acetamido-1,3,4-thiadiazol-2-yl)pyrrolidin-3-yl)pyridazin-3-yl)-2-(3-(trifluoromethoxy)phenyl)acetamide], the pIC50 in experiment [1] is above 7.00. The pEC50 in experiment [2] (Homo sapiens) is 6.30 to 7.00.

As to `O=C(Cc1ccccn1)Nc1ccc([C@@H]2CCN(c3nnc(C(=O)NCc4cc(C5CC5)ccn4)s3)C2)nn1` [Example 47, (R)-N-((4-cyclopropylpyridin-2-yl)methyl)-5-(3-(6-(2-(pyridin-2-yl)acetamido)pyridazin-3-yl)pyrrolidin-1-yl)-1,3,4-thiadiazole-2-carboxamide], the pIC50 in experiment [1] was above 7.00. In addition, the pEC50 in experiment [2] (Homo sapiens) was above 7.00.

Consider `Cc1cc(C(F)(F)F)cc(CNC(=O)c2nnc(N3CC[C@@H](c4ccc(NC(=O)Cc5ccccn5)nn4)C3)s2)n1` [Example 48, (R)-N-((6-methyl-4-(trifluoromethyl)pyridin-2-yl)methyl)-5-(3-(6-(2-(pyridin-2-yl)acetamido)pyridazin-3-yl)pyrrolidin-1-yl)-1,3,4-thiadiazole-2-carboxamide], for which the pIC50 in experiment [1] is above 7.00. In addition, the pEC50 in experiment [2] (Homo sapiens) was above 7.00.
